# Reference: patent US4221909A, “P-Acetamidobenzoic acid salts of 9-(hydroxyalkyl) purines” (Sloan-Kettering Institute for Cancer Research, priority 1978, dated 1980)
# Structures can show the parent of a compound that is named as a salt.
# Columns and labels:
# Type in all cases: cell-based
# [1] = tested on: human peripheral blood lymphocytes; test: Mitogen Induced (PHA) Human Lymphocyte Proliferation
# Mouse spleen cells = test: Mitogen Induced (Con A) Mouse Lymphocyte Proliferation
# Description: The following three assay procedures are used to evaluate the ability of the test substances to modulate the activity of several classes of cells in the immune system. In these systems it is possible to identify both immunopotentiating activity (evidence by an enhancement of the parameter examined) as well as immunosuppressant activity (evidenced by an inhibition of the parameter examined).
# 1. Mitogen--Induced Mouse Spleen Cell Assay--Mouse spleen cells contain a population of both B and T lymphocytes which can be stimulated by a number of foreign substances (e.g., plant mitogens such as Con A) to proliferate. This enhanced proliferation is an indication of enhanced cell mediated immunity. The method below describes the system used to evaluate test substances as immunopotentiators.
# Concanavalin A (Calbiochem, La Jolla, Calif.), Lot #210073, lyophilized in NaCl, was prepared first as a 1% solution and diluted as a 2× concentration for each dilution (0.5, 1.0, 2.5 μg/ml).
# Six to eight week old male Balb/c and C3 H inbred mice were obtained from the following sources: Flow Research Animals, Inc., Dublin, Va.; Charles River Breeding Laboratories, Wilmington, Mass.; Laboratory Supply Company, Indianapolis, Ind.; and Lionel Strong Foundation, San Diego, Calif.
# Three to five mice were sacrificed by cervical dislocation and the spleens aseptically removed. Pooled spleens were minced and teased with sterile forceps; then strained through a double layer of nylon mesh. The cell suspension was washed once with 15 ml of RPMI 1640 supplemented with 5% fetal calf serum and antibiotics. Cells were cultured at a concentration of 10^6 cells/0.1 ml/well in micro-plates. Cultures were incubated in the presence or absence of mitogen in a humidified atmosphere containing 5% CO2 for 48 hours. The test compound was added to cultures at various concentrations concommitant with mitogen.
# Proliferation was assayed by the degree of incorporation of 1.0 μCi of [^3 H] thymidine over an 18 hour incubation period. Cultures were harvested by a MASH unit (Otto Hiller Co., Madison, Wisconsin) and thymidine incorporation was assayed by liquid scintillation spectrometry. Cultures were performed in triplicate and data are expressed as means plus or minus the strandard error of the experimental means. Drug stimulation indices over control values were also calculated and portrayed graphically.
# influenza virus = test: Anti-influenza activity (summary)
smiles,measurement,setting,value
"CCCCCC[C@H]([C@H](C)O)n1cnc2c(N)ncnc21 (relative stereo) [NPT 15426, Erythro-9-(2-Hydroxy-3-Nonyl)-Adenine. HCl]","Maximum Percent Change, Mitogen Induced (PHA) Human Lymph. Prolif.",[1]; 1.0-10,-41%
same,"Maximum Percent Change, Mitogen Induced (PHA) Human Lymph. Prolif.",[1]; .01-1.0,6%
same,"Maximum Percent Change, Mitogen Induced (Con A) Mouse Lymph. Prolif.",Mouse spleen cells; 1.0-10,-85%
same,"Maximum Percent Change, Mitogen Induced (Con A) Mouse Lymph. Prolif.",Mouse spleen cells; 10-100,-91%
same,"Maximum Percent Change, Mitogen Induced (Con A) Mouse Lymph. Prolif.",Mouse spleen cells; .01-1.0,-50%
same,anti-influenza activity by themselves,influenza virus,significant anti-influenza activity
